Test systems include M14 melanoma; T-47D breast; SF-539 CNS; SW-620 colon; MDA-MB-435; NCI/ADR-RES ovarian; OVCAR-4 ovarian; CCRF-CEM leukemia; NCI-H522 lung; A549 NSCLC.
What all share (test): NCI tumour cell line growth inhibition, 48 h

The structures appear in SMILES notation.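 Protocol summary: plate cells (96-well), add compound at 5 concentrations, incubate 48 h, interpolate endpoints linearly. Abbreviation: GI50, concentration required for 50% inhibition of growth. Definition used: TGI = concentration required for complete inhibition of growth.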

12 compounds from PubChem BioAssay (NCI) can be followed below.

As to `O=C(NC(=S)Nc1ccc(Cl)cc1)c1ccccc1`, the GI50 with M14 melanoma is over 100 µM; in the assay on T-47D breast it was over 90.3 µM; in the assay on SF-539 CNS, over 90.7 µM; in the assay with SW-620 colon, over 100 µM; in the assay on MDA-MB-435, over 100 µM; in the assay on NCI/ADR-RES ovarian, over 100 µM. The GI50 is over 46.5 µM in the assay with OVCAR-4 ovarian, over 100 µM in the assay with CCRF-CEM leukemia, over 100 µM in the assay with NCI-H522 lung and over 100 µM in the assay with A549 NSCLC. For the same compound, the TGI in the assay on M14 melanoma, in the assay on T-47D breast, in the assay with SF-539 CNS, in the assay with SW-620 colon, in the assay on MDA-MB-435 and in the assay with NCI/ADR-RES ovarian was over 100 µM in each case. In addition, the TGI in the assay on OVCAR-4 ovarian, in the assay with CCRF-CEM leukemia, with NCI-H522 lung and in the assay on A549 NSCLC was over 100 µM each time.
For the compound `COc1c(O)ccc2c1CN1CCc3cc4c(cc3C1C2)OCO4` (centres undefined), the TGI was over 100 µM in the assay with M14 melanoma; over 73.9 µM in the assay with T-47D breast; over 100 µM with SF-539 CNS; over 100 µM in the assay with SW-620 colon; over 60.9 µM in the assay with MDA-MB-435; 90.2 µM in the assay with NCI/ADR-RES ovarian. In addition, the TGI in the assay on OVCAR-4 ovarian was over 100 µM; in the assay on CCRF-CEM leukemia, over 100 µM; with NCI-H522 lung, 36.1 µM; in the assay on A549 NSCLC, over 100 µM.
Regarding `Cc1cc(S(=O)(=O)Nc2nnc(-c3ccccc3)c(-c3ccccc3)n2)c(SCc2ccccc2)cc1Cl`, the GI50 in the assay on M14 melanoma was 20.7 µM; with T-47D breast, 23.8 µM; with SF-539 CNS it was 19.9 µM; with SW-620 colon it was 20.6 µM; in the assay on MDA-MB-435, 21.7 µM; in the assay on NCI/ADR-RES ovarian it was 32.8 µM. The GI50 with OVCAR-4 ovarian is 19.9 µM; in the assay on CCRF-CEM leukemia it was 23.8 µM; in the assay on NCI-H522 lung, 21.8 µM; in the assay on A549 NSCLC, 27.7 µM. The TGI amounted to 42.1 µM in the assay with M14 melanoma; 52.3 µM with T-47D breast; 38.6 µM in the assay with SF-539 CNS; 44.8 µM with SW-620 colon; 43.3 µM with MDA-MB-435; 90.3 µM in the assay on NCI/ADR-RES ovarian. Further, the TGI in the assay with OVCAR-4 ovarian is 37.2 µM; with CCRF-CEM leukemia, 75.5 µM; in the assay on NCI-H522 lung it was 53.7 µM; in the assay with A549 NSCLC, over 100 µM.
As to `O=C1C(=O)c2ccccc2C(O)=C1C(CCc1ccccc1)C1=C(O)c2ccccc2C(=O)C1=O`, the TGI was over 100 µM in the assay on M14 melanoma; over 100 µM with T-47D breast; over 100 µM with SF-539 CNS; over 100 µM with SW-620 colon; 28.4 µM in the assay with MDA-MB-435; over 100 µM in the assay on NCI/ADR-RES ovarian. Further, the TGI in the assay with OVCAR-4 ovarian, in the assay on CCRF-CEM leukemia, in the assay on NCI-H522 lung and with A549 NSCLC was over 100 µM each time.
As for `CC(=O)OC(C)(C)/C=C/C(=O)[C@](C)(O)[C@H]1[C@H](O)C[C@@]2(C)[C@@H]3CC=C4[C@@H](C[C@H](O)C(=O)C4(C)C)[C@]3(C)C(=O)C[C@]12C`, the TGI is under 0.01 µM in the assay with M14 melanoma; 0.543 µM in the assay on T-47D breast; under 0.01 µM in the assay on SF-539 CNS; 7.54 µM in the assay on SW-620 colon; 2.46 µM in the assay on MDA-MB-435; 15.2 µM in the assay with NCI/ADR-RES ovarian. Besides, the TGI is under 0.01 µM with OVCAR-4 ovarian, 0.423 µM with CCRF-CEM leukemia, under 0.01 µM with NCI-H522 lung and 11.4 µM with A549 NSCLC.
Take `Cn1c(=O)c2[nH]c(CS(=O)(=O)Cc3nc4c([nH]3)c(=O)n(C)c(=O)n4C)nc2n(C)c1=O`: the TGI in the assay on M14 melanoma, with T-47D breast, with SF-539 CNS, in the assay on SW-620 colon, with MDA-MB-435 and in the assay on NCI/ADR-RES ovarian was over 100 µM each time. The TGI in the assay with OVCAR-4 ovarian, in the assay on CCRF-CEM leukemia, in the assay with NCI-H522 lung and with A549 NSCLC was over 100 µM throughout.
Consider `CN(C)c1ccc2c3c(c(=O)oc2c1)CCC3`, for which the TGI in the assay on M14 melanoma, with T-47D breast, with SF-539 CNS, in the assay on SW-620 colon, in the assay with MDA-MB-435 and in the assay on NCI/ADR-RES ovarian was over 100 µM throughout. For the same compound, the TGI in the assay with OVCAR-4 ovarian, in the assay with CCRF-CEM leukemia, in the assay on NCI-H522 lung and with A549 NSCLC was over 100 µM throughout.
Consider `O=C(Nc1ncc(Cc2ccccc2Cl)s1)c1ccc2c(c1)OCCO2`, for which the GI50 in the assay on M14 melanoma is 0.246 µM; in the assay with T-47D breast, 0.333 µM; in the assay with SF-539 CNS, 0.258 µM; in the assay on SW-620 colon, 0.358 µM; in the assay with MDA-MB-435, 0.0399 µM; with NCI/ADR-RES ovarian, 0.322 µM. Further, the GI50 in the assay with OVCAR-4 ovarian was 0.693 µM; in the assay with CCRF-CEM leukemia, 0.36 µM; in the assay on NCI-H522 lung, 0.261 µM; with A549 NSCLC, 0.466 µM. Moreover, the TGI with M14 melanoma was 14.5 µM; with T-47D breast it was over 100 µM; in the assay with SF-539 CNS, 0.741 µM; in the assay with SW-620 colon, over 100 µM; in the assay on MDA-MB-435, 0.22 µM; in the assay with NCI/ADR-RES ovarian it was 22.2 µM. Further, the TGI with OVCAR-4 ovarian is over 68.2 µM; in the assay on CCRF-CEM leukemia it was over 100 µM; with A549 NSCLC it was over 100 µM.
For `COc1ccc(/C=C\c2cc(OC)c(OC)c(OC)c2)cc1OCC(=O)Nc1nc2ccc(C(F)(F)F)cc2s1`, the GI50 is 3.59 µM in the assay on M14 melanoma; 4.79 µM with T-47D breast; 2.66 µM with SF-539 CNS; 4.65 µM in the assay with SW-620 colon; 1.84 µM with MDA-MB-435; 2.12 µM in the assay with NCI/ADR-RES ovarian. In addition, the GI50 in the assay on OVCAR-4 ovarian is 4.66 µM; with CCRF-CEM leukemia, 4.27 µM; in the assay on NCI-H522 lung, 2.89 µM; in the assay on A549 NSCLC it was 4.46 µM. The TGI in the assay on M14 melanoma is over 100 µM; with T-47D breast it was over 100 µM; with SF-539 CNS, 7.87 µM; in the assay with SW-620 colon it was over 100 µM; in the assay with MDA-MB-435 it was 5.91 µM; in the assay with NCI/ADR-RES ovarian, 5.8 µM. Moreover, the TGI with OVCAR-4 ovarian was over 100 µM; in the assay on CCRF-CEM leukemia, over 100 µM; in the assay with NCI-H522 lung, 19.6 µM; with A549 NSCLC, over 100 µM.
`CCOC(CN=c1nc(N(C)C)ss1)OCC`: the TGI in the assay with M14 melanoma is 35.5 µM; in the assay with T-47D breast it was over 63.7 µM; in the assay with SF-539 CNS, 31.4 µM; in the assay with SW-620 colon, 25.9 µM; in the assay on MDA-MB-435, 32.4 µM; in the assay on NCI/ADR-RES ovarian, over 100 µM. In addition, the TGI in the assay with OVCAR-4 ovarian was 33.1 µM; with CCRF-CEM leukemia it was 4.33 µM; in the assay with NCI-H522 lung it was 1.45 µM; with A549 NSCLC it was over 100 µM.
As for `O=[N+]([O-])/C=C/c1c[nH]c2ccccc12`, the GI50 in the assay on M14 melanoma is 2.35 µM; in the assay on T-47D breast, 15 µM; in the assay with SF-539 CNS it was 15.4 µM; with SW-620 colon, 15.2 µM; in the assay on MDA-MB-435, 2.15 µM; in the assay with NCI/ADR-RES ovarian it was 18.4 µM. Besides, the GI50 was 12.4 µM with OVCAR-4 ovarian, 15.8 µM in the assay on CCRF-CEM leukemia, 14.8 µM in the assay with NCI-H522 lung and 14 µM in the assay with A549 NSCLC. The TGI in the assay with M14 melanoma came out at 6.43 µM; with T-47D breast, 37.7 µM; with SF-539 CNS, 35.6 µM; with SW-620 colon it was 57.5 µM; in the assay on MDA-MB-435, 5.06 µM; with NCI/ADR-RES ovarian, 40 µM. The TGI in the assay with OVCAR-4 ovarian was 26.8 µM; in the assay on CCRF-CEM leukemia, over 100 µM; in the assay with NCI-H522 lung, 28.9 µM; in the assay on A549 NSCLC, 31.7 µM.
Turning to `CCN(CC)CCOc1ccc(/C=C2\CC3C4CC=C5C[C@@H](N6CCCC6)CC[C@]5(C)C4CC[C@]3(C)[C@H]2O)cc1OC` (some centres undefined), the GI50 in the assay on M14 melanoma is 1.92 µM; with T-47D breast, 7.75 µM; with SF-539 CNS, 1.91 µM; with SW-620 colon it was 0.624 µM; in the assay with MDA-MB-435, 3.86 µM; in the assay with NCI/ADR-RES ovarian, 13.3 µM. Also, the GI50 with OVCAR-4 ovarian was 24 µM; in the assay with CCRF-CEM leukemia it was 1.14 µM; in the assay with NCI-H522 lung, 9.06 µM; in the assay with A549 NSCLC it was 7.91 µM. Also, the TGI with M14 melanoma was found to be 4.23 µM; with T-47D breast, 22.6 µM; with SF-539 CNS, 3.93 µM; in the assay with SW-620 colon, 7.38 µM; in the assay on MDA-MB-435 it was 14.5 µM; in the assay on NCI/ADR-RES ovarian it was 47.5 µM. In addition, the TGI in the assay with OVCAR-4 ovarian was over 82.3 µM; in the assay on CCRF-CEM leukemia, 4.77 µM; in the assay with NCI-H522 lung, over 30.2 µM; in the assay with A549 NSCLC, over 100 µM.
